The target in test [1] is T1, Aurora B (Homo sapiens, UniProt Q96GD4).
T1 construct: Active Aurora B enzyme (recombinant residues 1-344)
Description: Aurora B enzyme inhibition (time-resolved fluorescence, histone H3 peptide). The test is classed as biochemical. The note with it: 1 mM ATP. The method, boiled down: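 IC50s came from an exponential fit of inhibition against inhibitor concentration, with phosphorylation read as the 665/615 nm time-resolved fluorescence ratio after EDTA stop using Eu-anti-phospho-H3 and SA-APC. The 1 h reaction used Aurora B 1-344 plus GST-INCENP, biotin-histone H3 1-21 peptide and 1 mM ATP in pH 7.4 HEPES buffer.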

The target in test [2] is T2, Aurora A (Homo sapiens, UniProt O14965).
T2 sequence (O14965 1-403): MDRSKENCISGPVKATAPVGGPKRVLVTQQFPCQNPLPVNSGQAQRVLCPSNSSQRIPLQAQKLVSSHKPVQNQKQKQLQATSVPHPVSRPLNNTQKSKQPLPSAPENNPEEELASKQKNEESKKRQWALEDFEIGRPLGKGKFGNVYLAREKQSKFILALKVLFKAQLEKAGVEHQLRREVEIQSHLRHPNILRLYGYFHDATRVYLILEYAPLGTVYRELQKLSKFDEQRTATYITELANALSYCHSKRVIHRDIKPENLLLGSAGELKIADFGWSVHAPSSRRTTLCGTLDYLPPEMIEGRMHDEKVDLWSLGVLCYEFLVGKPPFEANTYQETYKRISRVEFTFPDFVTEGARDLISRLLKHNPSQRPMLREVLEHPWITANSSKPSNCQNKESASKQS
Description: Aurora A enzyme inhibition (time-resolved fluorescence, STK substrate-2). The test is classed as biochemical. The note with it: 1 mM ATP. The method, boiled down:
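Phosphorylation of biotinylated STK substrate-2 at 1 mM ATP, 1 h, Hepes buffer pH 7.4 (MgCl2, sodium orthovanadate, Triton X-100). After EDTA quench, 665/615 nm time-resolved fluorescence ratio read via europium anti-phospho antibody and SA-XL665; IC50 from exponential fit versus inhibitor concentration.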

The source of these data is patent publication US8426408B2, “Pyrimidine inhibitors of kinases” (AbbVie Inc., priority 2009, dated 2013).

Bounds are passed on as bounds.

T1 sequence (Q96GD4 whole entry, the tested form may be a part): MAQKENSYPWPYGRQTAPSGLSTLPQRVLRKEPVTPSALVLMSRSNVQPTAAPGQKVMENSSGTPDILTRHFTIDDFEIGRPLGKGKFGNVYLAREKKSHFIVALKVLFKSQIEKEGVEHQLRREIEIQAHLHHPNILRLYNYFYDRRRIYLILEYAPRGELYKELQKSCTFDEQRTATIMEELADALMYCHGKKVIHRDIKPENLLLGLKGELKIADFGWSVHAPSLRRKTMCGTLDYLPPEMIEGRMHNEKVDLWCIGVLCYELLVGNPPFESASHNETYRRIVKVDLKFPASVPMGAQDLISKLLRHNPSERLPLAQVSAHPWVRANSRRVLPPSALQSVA
T1 sequence (Q9NQS7 826-918 partner limits assumed): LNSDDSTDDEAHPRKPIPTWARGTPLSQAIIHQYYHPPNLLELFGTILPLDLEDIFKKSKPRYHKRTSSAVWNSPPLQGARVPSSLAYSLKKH

Take `C[C@@H](O)Cn1cc(Nc2ncc(Cl)c(N[C@@H]3[C@H]4CC[C@H](C4)[C@@H]3C(N)=O)n2)cn1` [Example 104, (1R,2S,3R,4S)-3-{[5-chloro-2-({1-[(2R)-2-hydroxypropyl]-1H-pyrazol-4-yl}amino)pyrimidin-4-yl]amino}bicyclo[2.2.1]heptane-2-carboxamide]: the Ki in test [1] and in test [2] was under 100 nM each time.
As for `COc1cccc(Cn2cc(Nc3ncc(Br)c(N[C@H]4[C@@H](C(N)=O)[C@@H]5C=C[C@H]4C5)n3)cn2)c1` [Example 159, (1S,2S,3R,4R)-3-[(5-bromo-2-{[1-(3-methoxybenzyl)-1H-pyrazol-4-yl]amino}pyrimidin-4-yl)amino]bicyclo[2.2.1]hept-5-ene-2-carboxamide], the Ki in test [1] and in test [2] was under 100 nM each time.
Regarding `CCn1cc(Nc2ncc(Cl)c(N[C@@H]3[C@@H]4CC[C@@H](C4)[C@@H]3C(N)=O)n2)cn1.CCn1cc(Nc2ncc(Cl)c(N[C@H]3[C@H]4CC[C@H](C4)[C@H]3C(N)=O)n2)cn1` (mixture of isomers) [Example 114, (1R,2R,3S,4S)-3-({5-chloro-2-[(1-ethyl-1H-pyrazol-4-yl)amino]pyrimidin-4-yl}amino)bicyclo[2.2.1]heptane-2-carboxamide and (1S,2S,3R,4R)-3-({5-chloro-2-[(1-ethyl-1H-pyrazol-4-yl)amino]pyrimidin-4-yl}amino)bicyclo[2.2.1]heptane-2-carboxamide], the inhibitory constant (Ki) in test [1] and in test [2] was under 100 nM throughout.
For `NC(=O)[C@@H]1[C@H](Nc2nc(Nc3cnn(CC(=O)O)c3)ncc2Cl)[C@H]2C=C[C@@H]1C2` [Example 103, {4-[(4-{[(1R,2R,3S,4S)-3-carbamoylbicyclo[2.2.1]hept-5-ene-2-yl]amino}-5-chloropyrimidin-2-yl)amino]-1H-pyrazol-1-yl}acetic acid], the Ki in test [1] and in test [2] was under 100 nM throughout.
For `CN1CCN(CCn2cc(Nc3ncc(Cl)c(N[C@H]4[C@@H](C(N)=O)[C@@H]5C=C[C@H]4C5)n3)cn2)CC1` [Example 91, (1S,2S,3R,4R)-3-{[5-chloro-2-({1-[2-(4-methylpiperazin-1-yl)ethyl]-1H-pyrazol-4-yl}amino)pyrimidin-4-yl]amino}bicyclo[2.2.1]hept-5-ene-2-carboxamide], the Ki in test [1] and in test [2] was under 100 nM in each case.
Turning to `Cn1cc(Nc2ncc(C(F)(F)F)c(N[C@@H]3[C@H](C(N)=O)[C@H]4C=C[C@@H]3C4)n2)cn1.Cn1cc(Nc2ncc(C(F)(F)F)c(N[C@H]3[C@@H](C(N)=O)[C@@H]4C=C[C@H]3C4)n2)cn1` (mixture of isomers) [Example 10, (1S,2S,3R,4R)-3-{[2-[(1-methyl-1H-pyrazol-4-yl)amino]-5-(trifluoromethyl)pyrimidin-4-yl]amino}bicyclo[2.2.1]hept-5-ene-2-carboxamide and (1R,2R,3S,4S)-3-{[2-[(1-methyl-1H-pyrazol-4-yl)amino]-5-(trifluoromethyl)pyrimidin-4-yl]amino}bicyclo[2.2.1]hept-5-ene-2-carboxamide], the inhibition constant Ki in test [1] and in test [2] was under 100 nM each time.
Regarding `C[C@@H](O)Cn1cc(Nc2ncc(Cl)c(N[C@H]3[C@@H](C(N)=O)[C@@H]4C=C[C@H]3C4)n2)cn1` [Example 105, (1S,2S,3R,4R)-3-{[5-chloro-2-({1-[(2R)-2-hydroxypropyl]-1H-pyrazol-4-yl}amino)pyrimidin-4-yl]amino}bicyclo[2.2.1]hept-5-ene-2-carboxamide], the inhibition constant Ki in test [1] and in test [2] was under 100 nM each time.
On to `CC(C)NC(=O)C1CCCC1Nc1nc(Nc2cnn(C3CCNCC3)c2)ncc1Cl` (racemic) [Example 163, (1S,2R)-2-[(5-chloro-2-{[1-(piperidin-4-yl)-1H-pyrazol-4-yl]amino}pyrimidin-4-yl)amino]-N-isopropylcyclopentanecarboxamide and (1R,2S)-2-[(5-chloro-2-{[1-(piperidin-4-yl)-1H-pyrazol-4-yl]amino}pyrimidin-4-yl)amino]-N-isopropylcyclopentanecarboxamide], for which the inhibition constant Ki in test [1] and in test [2] was under 100 nM each time.
Turning to `CN(C)CC(=O)N1CCC(n2cc(Nc3ncc(Cl)c(N[C@H]4[C@@H](C(N)=O)[C@@H]5C=C[C@H]4C5)n3)cn2)CC1` [Example 89, (1S,2S,3R,4R)-3-{[5-chloro-2-({1-[1-(N,N-dimethylglycyl)piperidin-4-yl]-1H-pyrazol-4-yl}amino)pyrimidin-4-yl]amino}bicyclo[2.2.1]hept-5-ene-2-carboxamide], the inhibition constant Ki in test [1] and in test [2] was under 100 nM each time.
Take `CC(C)n1cc(Nc2ncc(Br)c(N[C@H]3[C@@H](C(N)=O)[C@@H]4C=C[C@H]3C4)n2)cn1` [Example 112, (1S,2S,3R,4R)-3-({5-bromo-2-[(1-isopropyl-1H-pyrazol-4-yl)amino]pyrimidin-4-yl}amino)bicyclo[2.2.1]hept-5-ene-2-carboxamide]: the Ki in test [1] and in test [2] was under 100 nM each time.
For `Cc1c(Nc2ncc(Cl)c(N[C@H]3[C@@H](C(N)=O)[C@@H]4C=C[C@H]3C4)n2)cnn1C` [Example 169, (1S,2S,3R,4R)-3-({5-chloro-2-[(1,5-dimethyl-1H-pyrazol-4-yl)amino]pyrimidin-4-yl}amino)bicyclo[2.2.1]hept-5-ene-2-carboxamide], the Ki in test [1] and in test [2] was under 100 nM throughout.
Consider `NC(=O)[C@@H]1[C@H](Nc2nc(Nc3cnn(CCc4ccccc4)c3)ncc2Cl)[C@H]2C=C[C@@H]1C2` [Example 143, (1S,2S,3R,4R)-3-[(5-chloro-2-{[1-(2-phenylethyl)-1H-pyrazol-4-yl]amino}pyrimidin-4-yl)amino]bicyclo[2.2.1]hept-5-ene-2-carboxamide], for which the inhibition constant Ki in test [1] and in test [2] was under 100 nM throughout.
As for `CC(O)Cn1cc(Nc2ncc(C(F)(F)F)c(NC3C4CCC(C4)C3C(N)=O)n2)cn1` (mixture of isomers) [Example 21, (1S,2R,3S,4R)-3-{[2-({1-[(2R)-2-hydroxypropyl]-1H-pyrazol-4-yl}amino)-5-(trifluoromethyl)pyrimidin-4-yl]amino}bicyclo[2.2.1]heptane-2-carboxamide and (1R,2S,3R,4S)-3-{[2-({1-[(2R)-2-hydroxypropyl]-1H-pyrazol-4-yl}amino)-5-(trifluoromethyl)pyrimidin-4-yl]amino}bicyclo[2.2.1]heptane-2-carboxamide], the Ki (as a rule, a measure of affinity in units of concentration, obtained from inhibition or displacement) is 100 to 1000 nM in test [1] and under 100 nM in test [2].
For `CCn1cc(Nc2ncc(C(F)(F)F)c(N[C@@H]3[C@H]4CC[C@H](C4)[C@@H]3C(N)=O)n2)cn1.CCn1cc(Nc2ncc(C(F)(F)F)c(N[C@H]3[C@@H]4CC[C@@H](C4)[C@H]3C(N)=O)n2)cn1` (mixture of isomers) [Example 24, (1R,2S,3R,4S)-3-{[2-[(1-ethyl-1H-pyrazol-4-yl)amino]-5-(trifluoromethyl)pyrimidin-4-yl]amino}bicyclo[2.2.1]heptane-2-carboxamide and (1S,2R,3S,4R)-3-{[2-[(1-ethyl-1H-pyrazol-4-yl)amino]-5-(trifluoromethyl)pyrimidin-4-yl]amino}bicyclo[2.2.1]heptane-2-carboxamide] the same measures were under 100 nM and under 100 nM.
For `NC(=O)[C@@H]1[C@H](Nc2nc(Nc3cnn(C4CCC4)c3)ncc2Cl)[C@H]2C=C[C@@H]1C2` [Example 118, (1S,2S,3R,4R)-3-({5-chloro-2-[(1-cyclobutyl-1H-pyrazol-4-yl)amino]pyrimidin-4-yl}amino)bicyclo[2.2.1]hept-5-ene-2-carboxamide] the same measures were under 100 nM and under 100 nM.
For `Cn1cc(Nc2ncc(Cl)c(N[C@@H]3CC[C@@H]3C(N)=O)n2)cn1.Cn1cc(Nc2ncc(Cl)c(N[C@H]3CC[C@H]3C(N)=O)n2)cn1` (mixture of isomers) [Example 151, (1S,2R)-2-({5-chloro-2-[(1-methyl-1H-pyrazol-4-yl)amino]pyrimidin-4-yl}amino)cyclobutanecarboxamide and (1R,2S)-2-({5-chloro-2-[(1-methyl-1H-pyrazol-4-yl)amino]pyrimidin-4-yl}amino)cyclobutanecarboxamide] the same measures were under 100 nM and under 100 nM.
For the compound `CCn1cc(Nc2ncc(C(F)(F)F)c(N[C@@H]3[C@H](C(N)=O)[C@H]4C=C[C@@H]3C4)n2)cn1.CCn1cc(Nc2ncc(C(F)(F)F)c(N[C@H]3[C@@H](C(N)=O)[C@@H]4C=C[C@H]3C4)n2)cn1` (mixture of isomers) [Example 22, (1S,2S,3R,4R)-3-{[2-[(1-ethyl-1H-pyrazol-4-yl)amino]-5-(trifluoromethyl)pyrimidin-4-yl]amino}bicyclo[2.2.1]hept-5-ene-2-carboxamide and (1R,2R,3S,4S)-3-{[2-[(1-ethyl-1H-pyrazol-4-yl)amino]-5-(trifluoromethyl)pyrimidin-4-yl]amino}bicyclo[2.2.1]hept-5-ene-2-carboxamide], the Ki in test [1] and in test [2] was under 100 nM in each case.
